Measurements published in ChEMBL document CHEMBL3227984, “5-Substituted uracil arabinonucleosides as potential antiviral agents” (J Med Chem, 1979).

System: Vaccinia virus
Experiment: Antiviral activity against Vaccinia virus infected in primary rabbit kidney cells assessed as inhibition of virus-induced cytopathogenicity
Assay type: functional, Orthopoxvirus vaccinia

N#Cc1cn([C@@H]2O[C@H](CO)[C@@H](O)[C@@H]2O)c(=O)[nH]c1=O
ID50: >3.7 ×10⁻⁴ M

O=c1[nH]c(=O)n([C@@H]2O[C@H](CO)[C@@H](O)[C@@H]2O)cc1O
ID50: >7.7 ×10⁻⁴ M

Cc1cn([C@@H]2O[C@H](CO)[C@@H](O)[C@@H]2O)c(=O)[nH]c1=O
ID50: 3.9 ×10⁻⁶ M

O=c1[nH]c(=O)n([C@@H]2O[C@H](CO)[C@@H](O)[C@@H]2O)cc1[N+](=O)[O-]
ID50: >6.9 ×10⁻⁴ M

O=c1ccn([C@@H]2O[C@H](CO)[C@@H](O)[C@@H]2O)c(=O)[nH]1 [ARAURIDINE]
ID50: 8.2 ×10⁻⁴ M
